Patent publication USRE42152E1, “Aromatic-linked polyamine macrocyclic compounds with anti-HIV activity” (Genzyme Corporation, priority 1992, dated 2011)
In brackets after ≈: the same amount, converted by molar mass. Where two headings read alike, the source gives them in different places.

Legend:
HIV-1 (HTLV-IIIB) = assay: microbe, parasite or virus in culture; assay type: cell-based; details: for IC50: Human immunodeficiency virus 1, IIIB, MT4, 120 h, read-out: IC50 HIV-1 (IIIB)
HIV-1, BaL = assay: microbe, parasite or virus in culture; assay type: cell-based
Description: Mononuclear cells were isolated from healthy, HIV-negative donors using Ficoll density separation. Cells (4×10^6/ml) were incubated for 5 days in 48 well plates (Costar) in monocyte medium consisting of RPMII640, supplemented with 20% ECS and 10% human serum. On day 5 non-adherent cells were washed out four times with warm PBS containing 2% human serum.
The monocytotropic strain of HIV-1, BaL, was used for the infection of these monocyte preparations (Pemo et al, 1 Exp Meal, 169, 933, 1989).
Adherent monocytes were exposed to […] of a 1:30 dilution of HIV-1, BaL for 30 minutes subsequently, monocyte medium was added to 1 ml/well. Adsorption was allowed for 24 hours at 37° C. Then, the wells were washed twice in order to remove excess virus and were cultivated in the presence of different drug concentrations. Thus, test compounds were added after adsorption. Every 3 to 4 days post infection the supernatant of the infected cultures was removed and replaced by fresh medium containing the test compound at the particular concentration. The concentration of viral p24 antigen was determined as described above.
(§1) IC50 and IC90 values were calculated by comparing the p24 antigen concentrations in supernatent of treated, infected cells and uncreated, infected cells at days 11 and 14 post infection.

MT-4 cells = assay: Cytotoxicity by MTT method in MT-4 cells; assay type: cell-based
HIV-1 strain IIIb = assay: Time-of-addition experiment, MT4 cells infected with HIV-1 IIIb, p24 antigen; assay type: cell-based; details: HIV-1 IIIb at high multiplicity, p24 at 29 hours after infection
Description: To pinpoint the stage at which the compounds interact with the HIV replicative cycle, a time-of-addition experiment was carried out on MT4 cells infected with HIV-1 strain IIIb at high virus multiplicity to ensure that the virus replicative steps would be synchronised in the whole cell populations. Test compounds wife added 1, 2, 3, . . . 22, 23, 24 hours after infection, and vital p24 antigen production determined 29 hours after infection.
Depending on the stage at which compounds interact and the need for intracellular metabolism, addition of the compounds could be delayed for n hours without loss of activity.

Jurkat cells = assay: Growth of exponentially growing cells (cell numbers); assay type: cell-based
HIV-1, strain IIIb = assay: microbe, parasite or virus in culture; assay type: cell-based
Description: Adsorption was allowed for 2 hours at 37° C. […] Test compound was added after stimulation and virus adsorption.
as §1

[1] = Cytotoxicity by MTT method in MT-4 cells; assay type: cell-based
[2] = test system: HIV-1 IIIb, RF, HE and NDK strains; assay: microbe, parasite or virus in culture; details: Human immunodeficiency virus 1, IIIB, MT4, read-out: IC50 against IIIb, RF, HE and NDK strains
Description: The compounds of the invention were tested in a screen by the MTT method (I Vixol Methods […] [1988]). MT-4 cells (2.5×10^4/well) were challenged with HIV-1 (HTLV-IIIB) or HIV-2 (LAV-2 ROD) at a concentration of 100 CCID50 and incubated in the presence of various concentrations of the test compounds, which were added immediately after challenge with the virus. After 5 days culture at 37° C. in a CO2 incubator, the number of viable cells was assessed by the MTT (tetrazolium) method. […] The potential therapeutic usefulness was assessed by calculating a Selectivity Index (SI) corresponding to the ratio of CC50 to IC50.

gp120/41 mediated fusion = details: HIV-1 IIIb infected HUT78 cells with MOLT4 cells
Source text: Syncytium formation between chronically infected cells and uninfected cells reflects the gp120/41 mediated fusion process of vital entry.

HUT78 cells = details: concentrations below 300 μg/ml; cell numbers 2, 3 and 4 days after seeding
HIV-2 (LAV-2 ROD) = assay: MTT anti-viral screen, MT-4 cells challenged with HIV-2; assay type: cell-based; details: Human immunodeficiency virus 2, MT4, 120 h, read-out: IC50 HIV-2 (ROD)
[3] = test system: low-passage primary clinical isolates of HIV-1 (K31, D370, K6/2); details: primary T4 cells; isolates K31 Zaire, D370 California, K6/2 Germany
Description: Primary T4 lymphocytes were purified from human spleens obtained from healthy donors by using a commercial kit (“Lympho-Kwik”) which combines reaction of cells with specific monoclonal antibodies and density gradient centrifugation to separate the cells. […] Cells were stimulated with 2 μg/ml PHA for 24 hours. Then they were spun down and infected with HIV-1, strain IIIb, by suspending the cells 10-fold concentrated in virus solution. Adsorption was allowed for 2 hours at 37° C. The inoculum was removed by centrifugation and the cells were re-suspended at their original concentration in fresh culture medium containing IL-2 (40 IE/ml). Test compound was added after stimulation and virus adsorption. Every 3 to 4 days post infection half of the supernatant of the infected cultures was removed and replaced by fresh medium containing the test compound at the particular concentration, The concentration of vital p24 antigen was determined in the supernatent by means of a commercial ELISA kit (Coulter) and served as a parameter for virus production.

[4] = test system: HIV uncoating (or fusion); assay: Sensitivity of viral RNA from freshly infected MT4 cells to RNase degradation (uncoating); assay type: cell-based; details: radiolabelled viral particles, RNA harvested 4 hours after infection
Source text: It was reasoned that if tincoating (fusion) was hampered, the viral capsid (or envelope) proteins would remain associated with the viral RNA genome and thus the RNA should be protected against RNase attack.

[5] = MT-4 cells, 100 CCID50, 5 days, MTT
[6] = Monocytes, HIV-1 BaL, p24, day 11 post infection
[7] = Monocytes, HIV-1 BaL, p24, day 14 post infection
[8] = Lymphocytes, HIV-1 IIIb, p24, day 11 post infection
[9] = Lymphocytes, HIV-1 IIIb, p24, day 14 post infection
[10] = concentrations below 300 μg/ml, cell numbers 2, 3 and 4 days after seeding

## Cc1cn([C@H]2C[C@H](N=[N+]=[N-])[C@@H](CO)O2)c(=O)[nH]c1=O [AZT, reference compound]
HIV-1 (HTLV-IIIB); [5]
  IC50 HIV-1 (IIIB): <8 ng/mL
MOLT4 cells; MOLT4
  TC50: 37000 ng/mL (≈ 138000 nM)
HIV-1, BaL; [6]
  IC50 day 11: 1 ng/mL (≈ 3.74 nM)
  IC90 day 11: 1.5 ng/mL (≈ 5.61 nM)
HIV-1, BaL; [7]
  IC50 day 14: 1 ng/mL (≈ 3.74 nM)
  IC90 day 14: 1.7 ng/mL (≈ 6.36 nM)
MT-4 cells
  CC50 (HIV-1 (IIIB)): >1000 ng/mL
HIV-1 strain IIIb
  n, hours addition could be delayed after infection without loss of activity: ~4 h
Jurkat cells; Jurkat
  TC50: 184000 ng/mL (≈ 689000 nM)
MT4 cells; MT4
  TC50: 23000 ng/mL (≈ 86100 nM)
HIV-1, strain IIIb; [8]
  IC50 day 11: 0.45 ng/mL (≈ 1.68 nM)
  IC90 day 11: 2.2 ng/mL (≈ 8.23 nM)
HIV-1, strain IIIb; [9]
  IC50 day 14: 0.43 ng/mL (≈ 1.61 nM)
  IC90 day 14: 1.1 ng/mL (≈ 4.12 nM)
U937 cell line; U937
  TC50: 5000 ng/mL (≈ 18700 nM)

## c1cc(CN2CCCNCCNCCCNCC2)ccc1CN1CCCNCCNCCCNCC1 [Compound B, 1,1′-[1,4-phenylenebis(methylene)]bis-1,4,8,11-tetraazacyclotetradecane]
HIV-1 (HTLV-IIIB); [5]
  IC50: 6 ng/mL (≈ 11.9 nM)
MOLT4 cells; [10]
  inhibition of cell growth: did not inhibit growth
HIV-1, BaL; Human immunodeficiency virus 1, BAL, Monocyte, primary monocytes, stated for both primary cell types, read-out: IC90 values
  IC90: 1 to 2 ng/mL (≈ 1.99 to 3.98 nM)
HIV-1, BaL; Human immunodeficiency virus 1, Monocyte, 264 h, Monocytes, HIV-1 BaL, p24, day 11 post infection, read-out: IC50 day 11
  IC50: < 1 ng/mL
HIV-1, BaL; Human immunodeficiency virus 1, Monocyte, 264 h, Monocytes, HIV-1 BaL, p24, day 11 post infection, read-out: IC90 day 11
  IC90: 1.9 ng/mL (≈ 3.78 nM)
HIV-1, BaL; Human immunodeficiency virus 1, Monocyte, 336 h, Monocytes, HIV-1 BaL, p24, day 14 post infection, read-out: IC50 day 14
  IC50: 1.1 ng/mL (≈ 2.19 nM)
HIV-1, BaL; Human immunodeficiency virus 1, Monocyte, 336 h, Monocytes, HIV-1 BaL, p24, day 14 post infection, read-out: IC90 day 14
  IC90: 2.1 ng/mL (≈ 4.18 nM)
[1]; human, CC50 (HIV-1 (IIIB))
  CC50 at 5 days: > 500000 ng/mL
[1]; human, CC50 (HIV-2 (ROD))
  CC50 at 5 days: > 500000 ng/mL
[2]
  IC50: 2 to 5 ng/mL (≈ 3.98 to 9.94 nM)
Jurkat cells; [10]
  inhibition of cell growth: did not inhibit growth
gp120/41 mediated fusion
  concentrations required for inhibition of fusion (syncytium formation): approximately 1 μg/ml
HUT78 cells
  inhibition of cell growth: did not inhibit growth
HIV-2 (LAV-2 ROD)
  IC50: < 10 ng/mL
MT4 cells; [10]
  inhibition of cell growth: did not inhibit growth
[3]
  inhibition of viral replication: strong inhibitor
HIV-1, strain IIIb; Human immunodeficiency virus 1, IIIB, Lymphocyte, primary T4 lymphocytes, stated for both primary cell types, read-out: IC90 values
  IC90: 1 to 2 ng/mL (≈ 1.99 to 3.98 nM)
HIV-1, strain IIIb; Human immunodeficiency virus 1, Lymphocyte, 264 h, Lymphocytes, HIV-1 IIIb, p24, day 11 post infection, read-out: IC50 day 11
  IC50: < 1 ng/mL
HIV-1, strain IIIb; Human immunodeficiency virus 1, Lymphocyte, 264 h, Lymphocytes, HIV-1 IIIb, p24, day 11 post infection, read-out: IC90 day 11
  IC90: < 1 ng/mL
HIV-1, strain IIIb; Human immunodeficiency virus 1, Lymphocyte, 336 h, Lymphocytes, HIV-1 IIIb, p24, day 14 post infection, read-out: IC50 day 14
  IC50: < 1 ng/mL
HIV-1, strain IIIb; Human immunodeficiency virus 1, Lymphocyte, 336 h, Lymphocytes, HIV-1 IIIb, p24, day 14 post infection, read-out: IC90 day 14
  IC90: 1 ng/mL (≈ 1.99 nM)
[4]
  resistance of viral RNA to degradation by RNase: showed resistance to degradation by RNaseA
U937 cell line; [10]
  inhibition of cell growth: did not inhibit growth

## Br.Br.Br.Br.Br.Br.Br.Br.O.O.c1cc(CN2CCCNCCNCCNCCC2)ccc1CN1CCCNCCNCCNCCC1 [Compound M, 11,11′-[1,4-Phenylene-bis-(methylene)]-bis-1,4,7,11-tetraazacyclotetradecane octahydrobromide dihydrate]
HIV-1 (HTLV-IIIB)
  IC50: 30 ng/mL
[1]; human; MT-4 cells, 5 days, MTT; HIV-1 part of table; read-out: CC50 (HIV-1 (IIIB))
  CC50 at 5 days: > 500000 ng/mL
MT-4 cells; MT-4 cells, 5 days, MTT, HIV-2 part of table
  CC50 (HIV-2 (ROD)): >500000 ng/mL
HIV-2 (LAV-2 ROD)
  IC50: 70 ng/mL

## CC(C)=CCN1Cc2cc(Cl)cc3[nH]c(=S)n(c23)C[C@@H]1C [Compound R82913]
HIV-1 strain IIIb
  n, hours addition could be delayed after infection without loss of activity: 6 h
[4]
  resistance of viral RNA to degradation by RNase: did not show this increased resistance

## O=c1[nH]cnc2c1ncn2[C@H]1CC[C@@H](CO)O1 [DDI]
[4]
  resistance of viral RNA to degradation by RNase: did not show this increased resistance

## CC(C)(C)NC(=O)[C@@H]1C[C@@H]2CCCC[C@@H]2CN1C[C@@H](O)[C@H](Cc1ccccc1)NC(=O)[C@H](CC(N)=O)NC(=O)c1ccc2ccccc2n1 [Ro31-8959]
HIV-1 strain IIIb
  n, hours addition could be delayed after infection without loss of activity: 12 h
[4]
  resistance of viral RNA to degradation by RNase: did not show this increased resistance

## Brc1cc(CN2CCCNCCNCCCNCC2)ccc1CN1CCCNCCNCCCNCC1 [Y, 1,1′-[2-bromo-1,4-phenylenebis-(methylene)]-bis-1,4,8,11-tetraazacyclotetradecane]
HIV-1 (HTLV-IIIB); [5]
  IC50: 7.5 ng/mL (≈ 12.9 nM)
[1]; human, MT-4 cells, 5 days, MTT; HIV-1 part of table; read-out: CC50 (HIV-1 (IIIB))
  CC50 at 5 days: > 250000 ng/mL
[1]; human, MT-4 cells, 5 days, MTT; HIV-2 part of table; read-out: CC50 (HIV-2 (ROD))
  CC50 at 5 days: > 250000 ng/mL
HIV-2 (LAV-2 ROD); [5]
  IC50: 4.3 ng/mL (≈ 7.39 nM)
